Assay results published in paper PMC6934700, “Structure-Guided Design of a Fluorescent Probe for the Visualization of FtsZ in Clinically Important Gram-Positive and Gram-Negative Bacterial Pathogens” (Scientific Reports, 2019).
In brackets after ≈: the same amount, converted by molar mass. Read-outs that look alike come from different tables or passages of the source.

How the values were obtained:
[1] = biological target: T1, S. pneumoniae (SpnFtsZ) (Streptococcus pneumoniae, UniProt A0A0H2ZNE0); assay: Fluorescence anisotropy binding of BOFP to SpnFtsZ; conditions: for Kd: 50 mM Tris-HCl (pH 7.6), 50 mM KCl, 0.1 µM BOFP
T1 sequence (A0A0H2ZNE0 1-419): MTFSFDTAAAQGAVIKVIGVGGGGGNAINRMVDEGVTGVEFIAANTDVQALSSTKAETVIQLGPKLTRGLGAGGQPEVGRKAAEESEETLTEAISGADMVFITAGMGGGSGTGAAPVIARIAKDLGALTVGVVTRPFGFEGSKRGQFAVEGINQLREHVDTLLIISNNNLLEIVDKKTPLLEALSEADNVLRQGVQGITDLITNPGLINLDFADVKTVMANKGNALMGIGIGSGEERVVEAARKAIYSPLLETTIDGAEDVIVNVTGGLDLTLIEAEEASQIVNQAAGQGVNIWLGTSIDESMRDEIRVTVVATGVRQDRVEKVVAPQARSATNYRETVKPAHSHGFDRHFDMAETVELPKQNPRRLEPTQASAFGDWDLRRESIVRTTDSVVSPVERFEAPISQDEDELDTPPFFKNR
Description: Fluorescence anisotropy experiments were performed using an AVIV model ATF105 spectrofluorometer at 15, 25, or 37 °C. In these experiments, bandwidths were set to 4 nm in both the excitation and emission directions, with the excitation and emission wavelengths being set at 488 nm and 510 nm, respectively. BOFP (0.1 µM) was titrated with increasing concentrations (ranging from 0 to 12 µM) of FtsZ in 120 µL of buffer containing 50 mM Tris-HCl (pH 7.6) and 50 mM KCl. After each protein addition, the samples were equilibrated for 3 minutes, whereupon the fluorescence anisotropy was measured.
In this equation, r0 is the anisotropy of the protein-free compound, r∞ is the anisotropy of the compound in the presence of an infinite concentration of FtsZ, [C]tot is the total concentration of the compound, and [P]tot is the total concentration of protein with each addition. These analyses yielded the equilibrium dissociation constant (Kd) for each binding reaction.
The binding free energy (ΔG) at temperature T was derived from the corresponding Kd value determined at T using the following relationship:2 ΔG=−RTln(1/Kd)
The binding enthalpy (ΔH) and entropy (ΔS) were derived from linear fits of the ln(1/Kd) vs. 1/T plots shown in Figs. 3f and 5e using the following relationship:3 ln(1/Kd)=−ΔH/R(1/T)+ΔS/R

[2] = test system: S. aureus NRS705 (MRSA); assay: MIC assay by broth microdilution; assay type: cell-based, Staphylococcus aureus; conditions: Staphylococcus aureus; MRSA NRS705; TH broth; ≥90% growth inhibition after 18-24 hours
Description: MIC assays of 1, 3, and BOFP were conducted by standard broth microdilution in TH media. Briefly, log-phase S. aureus NRS705 (MRSA) cells were added to 96-well microtiter plates (at 5 × 10^5 CFU/mL) containing 2-fold serial dilutions of each test compound in 0.1 mL of TH broth, with each compound concentration being present in duplicate. The MIC is defined as the lowest compound concentration at which growth is ≥90% inhibited after 18-24 hours of aerobic growth.

Compound: CC1=CC(C)=[N+]2C1=Cc1ccc(CCC(=O)OCC(Oc3ccc(F)c(C(N)=O)c3F)c3nc(-c4ccc(C(F)(F)F)cc4)c(Br)o3)n1[B-]2(F)F (stereo not drawn) [BOFP]
- Kd ([1]; 15 °C, read-out: Kd - 15 °C): 3.02 ± 0.3 µM
- Kd ([1]; 25 °C, read-out: Kd - 25 °C): 3.49 ± 0.25 µM
- Kd ([1]; 37 °C, read-out: Kd - 37 °C): 3.81 ± 0.69 µM
- ΔG ([1]; calculated at T = 310 K (37 °C) from Kd): -7.7 ± 0.1 kcal/mol
- ΔH ([1]; from linear fit of ln(1/Kd) vs. 1/T): -1.9 ± 0.3 kcal/mol
- MIC [2]: 1 µg/mL (≈ 1.28 µM)
